Source: patent publication US20190223483A1, “SENSORY MODIFIER COMPOUNDS” (CARGILL, INCORPORATED, priority 2017, published 2019)

Assays:
[1] = Roundtable assessment of sweetness linger (scale 0 to 6); assay type: in vivo; set-up: key: 0 = none; 1 = trace/faint; 2 = slight; 3 = moderate; 4 = definite; 5 = strong; 6 = extreme
Procedure: In some aspects, the amount of sensory modifier compound effective to […] can be determined by panel testing with trained panelists. For example, sweetness linger can be determined by the following test: For other sweetness attributes, the solutions were tested by a panel of at least four individuals that are highly-trained in tasting steviol glycoside solutions. The highly-trained panelists used a roundtable methodology to assess each sweetness attribute. To test each solution, the highly-trained panelists dispensed approximately 2 mL of each solution into their own mouths by transfer pipet, dispersed the solution by moving their tongues, and recorded a value for the particular sweetness attribute being tested. Between tasting solutions, the panelists were able to cleanse their palates with water. For each sweetness attribute, the panelist agreed on a descriptive scale with relative intensities assigned for each sweetness attribute and then recorded the values for each sweetness attribute against this. For example, this roundtable assessment of sweetness linger assigned a scale of 0 to 6 with a score of 0 indicating no sweetness linger and a score of 6 indicating extreme sweetness linger. Roundtable assessment of sweetness linger assigned a scale of 0 to 6 with a score of 0 indicating no sweetness linger and a score of 6 indicating extreme sweetness linger (0=none, 1=trace, 2=slight, 3=moderate, 4=definite, 5=strong, 6=extreme). Roundtable assessment of rounded assigned a scale of 0 to 3 with a score of 0 indicating spikey and a score of 3 indicating desirable rounded (0=none, 1=mostly spikey, some rounded, 2=mostly rounded, some spikey, 3=rounded). Roundtable assessment of mouthfeel assigned a scale of 0 to 2 with a score of 0 indicating water and a score of 2 indicating syrupy (0=water, 1=sucrosey, 2=syrupy). Roundtable assessment of bitterness assigned a scale of 0 to 6 with a score of 0 indicating no bitterness and a score of 6 indicating extreme sweetness linger (0=none, 1=trace, 2=slight, 3=moderate, 4=definite, 5=strong, 6=extreme). Roundtable assessment of off tastes assigned a scale of 0 to 6 with a score of 0 indicating no bitterness and a score of 6 indicating extreme off tastes (0=none, 1=trace, 2=slight, 3=moderate, 4=definite, 5=strong, 6=extreme). […] Roundtable assessment of botanical notes assigned a scale of 0 to 5 with a score of 0 indicating no botanical notes and a score of 5 indicating strong (0=none, 1=trace, 2=slight, 3=moderate, 4=definite, 5=strong). Exemplary tests are recorded below in Example 1.
For other sweetness attributes, the solutions were tested by a panel of at least four individuals that are highly-trained in tasting steviol glycoside solutions. The highly-trained panelists used a roundtable methodology to assess each sweetness attribute. To test each solution, the highly-trained panelists dispensed approximately 2 mL of each solution into their own mouths by transfer pipet, dispersed the solution by moving their tongues, and recorded a value for the particular sweetness attribute being tested. Between tasting solutions, the panelists were able to cleanse their palates with water. For each sweetness attribute, the panelist agreed on a descriptive scale with relative intensities assigned for each sweetness attribute and then recorded the values for each sweetness attribute against this. For example, this roundtable assessment of sweetness linger assigned a scale of 0 to 6 with a score of 0 indicating no sweetness linger and a score of 6 indicating extreme sweetness linger. Roundtable assessment of sweetness linger assigned a scale of 0 to 6 with a score of 0 indicating no sweetness linger and a score of 6 indicating extreme sweetness linger (0=none, 1=trace, 2=slight, 3=moderate, 4=definite, 5=strong, 6=extreme). […]

[2] = Sweetness intensity (SEV) by trained panel against 1%-14% sucrose standards; assay type: in vivo
Procedure: In some aspects, the amount of sensory modifier compound effective to increase sweetness intensity can be determined by panel testing with trained panelists. For example, […] can be determined by the following test: Solutions were prepared by dissolving steviol glycosides and sensory modifier compounds into reverse osmosis water at the indicated concentrations and/or ratios. Solutions were tested by a panel of at least four individuals that are highly-trained in tasting steviol glycoside solutions. The highly-trained panelists were trained against a standard range of 1%, 2%, 3%, 4%, 5%, 6%, 7%, 8%, 9%, 10%, 11%, 12%, 13%, and 14% sucrose solutions corresponding to 1, 2, 3, 4, 5, 6, 7, 8, 9, 10, 11, 12, 13, and 14 SEV. To test each solution, the highly-trained panelists dispensed approximately 2 mL of each solution into their own mouths by transfer pipet, dispersed the solution by moving their tongues, and recorded an SEV value for each solution based on comparison to the 1%, 2%, 3%, 4%, 5%, 6%, 7%, 8%, 9%, 10%, 11%, 12%, 13%, and 14% sucrose solutions. Between tasting solutions, the panelists were able to cleanse their palates with water. […] For sweetness intensity, the panelists focused on, and only recorded, the sweetness intensity in SEV that they tasted while disregarding other attributes of the solution. At the highest concentrations of steviol glycoside and sensory modifier compound, the panelists found other attributes to be highly noticeable, but recorded the isolated sweetness intensity for each solution despite these other attributes. Exemplary tests are described below in Example 1.
All solutions were prepared by dissolving steviol glycosides and sensory modifier compounds into reverse osmosis water at the indicated concentrations and/or ratios.
For sweetness intensity, the solutions were tested by a panel of at least four individuals that are highly-trained in tasting steviol glycoside solutions. The highly-trained panelists were trained against a standard range of 1%, 2%, 3%, 4%, 5%, 6%, 7%, 8%, 9%, 10%, 11%, 12%, 13%, and 14% sucrose solutions corresponding to 1, 2, 3, 4, 5, 6, 7, 8, 9, 10, 11, 12, 13, and 14 SEV. To test each solution, the highly-trained panelists dispensed approximately 2 mL of each solution into their own mouths by transfer pipet, dispersed the solution by moving their tongues, and recorded an SEV value for each solution based on comparison to the 1%, 2%, 3%, 4%, 5%, 6%, 7%, 8%, 9%, 10%, 11%, 12%, 13%, and 14% sucrose solutions. Between tasting solutions, the panelists were able to cleanse their palates with water. […] For this example, the panelists focused on and only recorded the sweetness intensity in SEV that they tasted while disregarding other attributes of the solution. At the highest concentrations of steviol glycoside and sensory modifier compound, the panelists found other attributes to be highly noticeable, but recorded the isolated sweetness intensity for each solution despite these other attributes.

[3] = steviol glycoside 700 ppm + yerba mate mono/dicaffeoylquinic acids 630 ppm
[4] = steviol glycoside 700 ppm + yerba mate mono/dicaffeoylquinic acids 946 ppm
[5] = steviol glycoside 700 ppm + yerba mate mono/dicaffeoylquinic acids […]
[6] = steviol glycoside 700 ppm, sensory modifier 0 ppm
[7] = steviol glycoside 700 ppm + yerba mate mono/dicaffeoylquinic acids 270 ppm
[8] = steviol glycoside 700 ppm + yerba mate mono/dicaffeoylquinic acids 540 ppm
[9] = steviol glycoside 700 ppm + yerba mate mono/dicaffeoylquinic acids 810 ppm

| SMILES | Sweetness linger [1, 3] | Sweetness linger [1, 4] | Sweetness linger [1, 5] | Sweetness linger [1, 6] | SEV [2, 3] | SEV [2, 4] | SEV [2, 5] | SEV [2, 6] | Sweetness linger [1, 7] | Sweetness linger [1, 8] | Sweetness linger [1, 9] | Sweetness linger ([1]; steviol glycoside 700 ppm, about 200 ppm sensory modifier) | SEV [2, 7] | SEV [2, 8] | SEV [2, 9] |
| --- | --- | --- | --- | --- | --- | --- | --- | --- | --- | --- | --- | --- | --- | --- | --- |
| C=C1C[C@@]23CC[C@H]4[C@@](C)(CCC[C@@]4(C)C(=O)O[C@@H]4O[C@H](CO)[C@@H](O)[C@H](O)[C@H]4O)[C@@H]2CC[C@]1(O[C@@H]1O[C@H](CO)[C@@H](O)[C@H](O[C@@H]2O[C@H](CO)[C@@H](O)[C@H](O)[C@H]2O)[C@H]1O[C@@H]1O[C@H](CO)[C@@H](O)[C@H](O)[C@H]1O)C3 [RebA, Rebaudioside A] | Not observed | Not observed | Not observed | Not observed | 7 | 7 | 7 | 7 | – | – | – | – | – | – | – |
| C=C1C[C@@]23CC[C@H]4[C@@](C)(CCC[C@@]4(C)C(=O)O[C@@H]4O[C@H](CO)[C@@H](O)[C@H](O)[C@H]4O[C@@H]4O[C@H](CO)[C@@H](O)[C@H](O)[C@H]4O)[C@@H]2CC[C@]1(O[C@@H]1O[C@H](CO)[C@@H](O)[C@H](O[C@@H]2O[C@H](CO)[C@@H](O)[C@H](O)[C@H]2O)[C@H]1O[C@@H]1O[C@H](CO)[C@@H](O)[C@H](O)[C@H]1O)C3 [RebD, Rebaudioside D] | – | – | – | 3 | – | – | – | 8 | 3 | 2 | 1 | reduced to commercially palatable levels | 8.5 | 8.5 | 8.5 |
